Source: US20120010235A1, “N-SUBSTITUTED PYRROLIDINES” (priority 2010, published 2012)
Where a name gives a salt, the structure may show the parent alone.

Test system: SJSA, an osteocarcinoma cell line
Assay: antiproliferative activity assay (tetrazolium dye, MTT) in SJSA cells
Conditions: cell-based MTT assay, inhibition of cell proliferation, read-out: TT IC50
Method: The pharmacological properties of the compounds of this invention may be confirmed by a number of pharmacological assays. The exemplified antiproliferative activity assay which follows has been carried out with the compounds according to the invention.
Cell proliferation was evaluated by the tetrazolium dye assay according to the procedure of Denizot and Lang (Denizot, F. and Lang, R. (1986) Rapid colorimetric assay for cell growth and survival. Modification to the terrazolium dye procedure giving improved sensitivity and reliability. J. Immunol. Methods 89, 271-277). The cell line used was SJSA, an osteocarcinoma cell line obtained from the American Type Cell Culture Collection (ATCC; Rockville, Md.). The cells were grown in PRMI with 10% FBS (Fetal Bovine Serum, Invitrogen).
Cells were plated at the appropriate seeding density to give logarithmic growth over the course of the assay in a 96-well tissue culture plate. Plates were incubated overnight at 37° C. in a humidified incubator with 5% CO2. The next day, test compounds were serially diluted 1:3 in the appropriate medium containing 3% DMSO. One-tenth final volume of each dilution was added […] to the plates containing cells. The same volume of 3% DMSO in medium was added to a row of control wells. Thus, the final concentration of DMSO in all wells was 0.3%. The plates were returned to the incubator, and at set time points (determined by their growth curves) plates were analyzed as follows: 3-(4,5-dimethylthiazole-2-yl)-2,5-diphenyl-2H-tetrazolium bromide (thiazolyl blue; MTT; Sigma) was added to each well to yield a final concentration of 1 mg/ml. Plates were returned to the incubator for 2.5 hours. The MTT-containing medium was removed and the resulting formazan metabolite was solubilized in 100% ethanol with shaking for 15 minutes at room temperature. Absorbances were read in a microtiter plate reader at a wavelength of 570 nm with a 650 nm reference. Percent inhibition (% INH) was calculated by subtracting the blank from all wells, then subtracting the ratio of the average absorbance of each triplicate (SAVE) by the average of the controls (CAVE) from 1.00. The final product was then multiplied by 100 (% INH=(1.00−SAVE/CAVE)×100). The concentration at which 50% inhibition (IC50) of cell proliferation is obtained was determined from the linear regression of a plot of the logarithm of the concentration versus percent inhibition.

Row | Structure (SMILES) | IC50 [nM]
1 | CCN1[C@@H](CC(C)(C)C)[C@](C#N)(c2ccc(Cl)cc2F)[C@@H](c2cccc(Cl)c2F)[C@@H]1C(=O)Nc1ccc(C(=O)O)cc1 (racemic) [Example 33, 4-{[(2R,3S,4R,5S)-3-(3-chloro-2-fluoro-phenyl)-4-(4-chloro-2-fluoro-phenyl)-4-cyano-5-(2,2-dimethyl-propyl)-1-ethyl-pyrrolidine-2-carbonyl]-amino}benzoic acid] | 1310
2 | CC(C)(C)C[C@@H]1N(CC2CC2)[C@@H](C(=O)Nc2ccc(C(=O)O)cc2)[C@H](c2cccc(Cl)c2F)[C@@]1(C#N)c1ccc(Cl)cc1F (racemic) [Example 34, rac-4-{[(2R,3S,4R,5S)-3-(3-chloro-2-fluoro-phenyl)-4-(4-chloro-2-fluoro-phenyl)-4-cyano-1-cyclopropylmethyl-5-(2,2-dimethyl-propyl)-pyrrolidine-2-carbonyl]-amino}-benzoic acid] | 300
3 | CC(C)(C)C[C@@H]1N(CCC2CCCCC2)[C@@H](C(=O)Nc2ccc(C(=O)O)cc2)[C@H](c2cccc(Cl)c2F)[C@@]1(C#N)c1ccc(Cl)cc1F (racemic) [Example 37, rac-4-{[(2R,3S,4R,5S)-3-(3-chloro-2-fluoro-phenyl)-4-(4-chloro-2-fluoro-phenyl)-4-cyano-1-(2-cyclohexyl-ethyl)-5-(2,2-dimethyl-propyl)-pyrrolidine-2-carbonyl]-amino}-benzoic acid] | 110
4 | COc1cc(C(=O)O)ccc1NC(=O)[C@H]1[C@H](c2cccc(Cl)c2F)[C@@](C#N)(c2ccc(Cl)cc2F)[C@H](CC(C)(C)C)N1C (racemic) [Example 39, rac-4-{[(2R,3S,4R,5S)-3-(3-chloro-2-fluoro-phenyl)-4-(4-chloro-2-fluoro-phenyl)-4-cyano-5-(2,2-dimethyl-propyl)-1-methyl-pyrrolidine-2-carbonyl]-amino}-3-methoxy-benzoic acid] | 40
5 | COc1cc(C(=O)O)ccc1NC(=O)[C@H]1[C@H](c2cccc(Cl)c2F)[C@@](C#N)(c2ccc(Cl)cc2F)[C@H](CC(C)(C)C)N1CC1CC1 (racemic) [Example 40, rac-4-{[(2R,3S,4R,5S)-3-(3-chloro-2-fluoro-phenyl)-4-(4-chloro-2-fluoro-phenyl)-4-cyano-1-cyclopropylmethyl-5-(2,2-dimethyl-propyl)-pyrrolidine-2-carbonyl]-amino}-3-methoxy-benzoic acid] | 130
6 | CCN1[C@@H](CC(C)(C)C)[C@](C#N)(c2ccc(Cl)cc2F)[C@@H](c2cccc(Cl)c2F)[C@@H]1C(=O)Nc1ccc(C(=O)O)cc1OC (racemic) [Example 44, rac-4-{[(2R,3S,4R,5S)-3-(3-chloro-2-fluoro-phenyl)-4-(4-chloro-2-fluoro-phenyl)-4-cyano-5-(2,2-dimethyl-propyl)-1-ethyl-pyrrolidine-2-carbonyl]-amino}-3-methoxy-benzoic acid] | 220
7 | COc1cc(NC(=O)[C@H]2[C@H](c3cccc(Cl)c3F)[C@@](C#N)(c3ccc(Cl)cc3F)[C@H](CC(C)(C)C)N2CCC2CCCCC2)ccc1C(=O)O (racemic) [Example 48, 4-{[(2R,3S,4R,5S)-3-(3-chloro-2-fluoro-phenyl)-4-(4-chloro-2-fluoro-phenyl)-4-cyano-1-(2-cyclohexyl-ethyl)-5-(2,2-dimethyl-propyl)-pyrrolidine-2-carbonyl]-amino}-2-methoxy-benzoic acid trifluoroacetate salt] | 430
8 | COc1cc(C(N)=O)ccc1NC(=O)[C@H]1[C@H](c2cccc(Cl)c2F)[C@@](C#N)(c2ccc(Cl)cc2F)[C@H](CC(C)(C)C)N1C (racemic) [Example 50, rac-(2R,3S,4R,5S)-3-(3-chloro-2-fluoro-phenyl)-4-(4-chloro-2-fluoro-phenyl)-4-cyano-5-(2,2-dimethyl-propyl)-1-methyl-pyrrolidine-2-carboxylic acid (4-carbamoyl-2-methoxy-phenyl)-amide] | 370
9 | CNC(=O)c1ccc(NC(=O)[C@H]2[C@H](c3cccc(Cl)c3F)[C@@](C#N)(c3ccc(Cl)cc3F)[C@H](CC(C)(C)C)N2C)c(OC)c1 (racemic) [Example 51, rac-(2R,3S,4R,5S)-3-(3-chloro-2-fluoro-phenyl)-4-(4-chloro-2-fluoro-phenyl)-4-cyano-5-(2,2-dimethyl-propyl)-1-methyl-pyrrolidine-2-carboxylic acid (2-methoxy-4-methylcarbamoyl-phenyl)-amide] | 460
10 | COc1cc(C(=O)O)ccc1NC(=O)[C@H]1[C@H](c2cccc(Cl)c2F)[C@@](C#N)(c2ccc(Cl)cc2F)[C@H](CC(C)(C)C)N1CCCCCO (racemic) [Example 56, rac-4-{[(2R,3S,4R,5S)-3-(3-chloro-2-fluoro-phenyl)-4-(4-chloro-2-fluoro-phenyl)-4-cyano-5-(2,2-dimethyl-propyl)-1-(5-hydroxy-pentyl)-pyrrolidine-2-carbonyl]-amino}-3-methoxy-benzoic acid] | 30
11 | CN1[C@@H](CC(C)(C)C)[C@](C#N)(c2ccc(Cl)cc2F)[C@@H](c2cccc(Cl)c2F)[C@@H]1C(=O)Nc1ccc(C(=O)O)cc1 [Example 25, 4-{[(2R,3S,4R,5S)-3-(3-chloro-2-fluoro-phenyl)-4-(4-chloro-2-fluoro-phenyl)-4-cyano-5-(2,2-dimethyl-propyl)-1-methyl-pyrrolidine-2-carbonyl]-amino}-benzoic acid] | 390
12 | CN1[C@@H](CC(C)(C)C)[C@](C#N)(c2ccc(Cl)cc2F)[C@@H](c2cccc(Cl)c2F)[C@@H]1C(=O)Nc1ccc(C(=O)O)c(F)c1 [Example 26, 4-{[(2R,3S,4R,5S)-3-(3-chloro-2-fluoro-phenyl)-4-(4-chloro-2-fluoro-phenyl)-4-cyano-5-(2,2-dimethyl-propyl)-1-methyl-pyrrolidine-2-carbonyl]-amino}-2-fluoro-benzoic acid trifluoroacetate salt] | 320

Now from value to molecule:

Row | IC50 [nM] | Structure (SMILES)
13 | 1230 | CCN1[C@@H](CC(C)(C)C)[C@](C#N)(c2ccc(Cl)cc2F)[C@@H](c2cccc(Cl)c2F)[C@@H]1C(=O)Nc1ccc(C(=O)O)c(OC)c1 (racemic) [Example 41, 4-{[(2R,3S,4R,5S)-3-(3-chloro-2-fluoro-phenyl)-4-(4-chloro-2-fluoro-phenyl)-4-cyano-5-(2,2-dimethyl-propyl)-1-ethyl-pyrrolidine-2-carbonyl]-amino}-2-methoxy-benzoic acid]
14 | 1360 | COc1cc(NC(=O)[C@H]2[C@H](c3cccc(Cl)c3F)[C@@](C#N)(c3ccc(Cl)cc3F)[C@H](CC(C)(C)C)N2C)ccc1C(=O)O (racemic) [Example 42, 4-{[(2R,3S,4R,5S)-3-(3-chloro-2-fluoro-phenyl)-4-(4-chloro-2-fluoro-phenyl)-4-cyano-5-(2,2-dimethyl-propyl)-1-methyl-pyrrolidine-2-carbonyl]-amino}-2-methoxy-benzoic acid]
15 | 1140 | CCCCN1[C@@H](CC(C)(C)C)[C@](C#N)(c2ccc(Cl)cc2F)[C@@H](c2cccc(Cl)c2F)[C@@H]1C(=O)Nc1ccc(C(=O)O)c(OC)c1 (racemic) [Example 43, 4-{[(2R,3S,4R,5S)-1-butyl-3-(3-chloro-2-fluoro-phenyl)-4-(4-chloro-2-fluoro-phenyl)-4-cyano-5-(2,2-dimethyl-propyl)-pyrrolidine-2-carbonyl]-amino}-2-methoxy-benzoic acid]
16 | 420 | COc1cc(NC(=O)[C@H]2[C@H](c3cccc(Cl)c3F)[C@@](C#N)(c3ccc(Cl)cc3F)[C@H](CC(C)(C)C)N2CCC(C)C)ccc1C(=O)O (racemic) [Example 45, 4-{[(2R,3S,4R,5S)-3-(3-chloro-2-fluoro-phenyl)-4-(4-chloro-2-fluoro-phenyl)-4-cyano-5-(2,2-dimethyl-propyl)-1-(3-methyl-butyl)-pyrrolidine-2-carbonyl]-amino}-2-methoxy-benzoic acid]
17 | 620 | C=CCCCN1[C@@H](CC(C)(C)C)[C@](C#N)(c2ccc(Cl)cc2F)[C@@H](c2cccc(Cl)c2F)[C@@H]1C(=O)Nc1ccc(C(=O)O)c(OC)c1 (racemic) [Example 47, 4-{[(2R,3S,4R,5S)-3-(3-chloro-2-fluoro-phenyl)-4-(4-chloro-2-fluoro-phenyl)-4-cyano-5-(2,2-dimethyl-propyl)-1-pent-4-enyl-pyrrolidine-2-carbonyl]-amino}-2-methoxy-benzoic acid]
18 | 1490 | CCCN1[C@@H](CC(C)(C)C)[C@](C#N)(c2ccc(Cl)cc2F)[C@@H](c2cccc(Cl)c2F)[C@@H]1C(=O)Nc1ccc(C(=O)O)c(OC)c1 (racemic) [Example 49, 4-{[(2R,3S,4R,5S)-3-(3-chloro-2-fluoro-phenyl)-4-(4-chloro-2-fluoro-phenyl)-4-cyano-5-(2,2-dimethyl-propyl)-1-propyl-pyrrolidine-2-carbonyl]-amino}-2-methoxy-benzoic acid]
